# Reference: patent US12163161B2, “In vitro method for identifying thoracic aortic aneurysms (TAA) in a subject” (CENTRO NACIONAL DE INVESTIGACIONES CARDIOVASCULARES CARLOS …, priority 2016, dated 2024)
# Legend:
# Nos2 [1] = target: T1, Nos2 (Mus musculus, UniProt P29477); experiment: NO / total NOx production in VSMCs transduced with siAdamts1 and treated with Nos2 inhibitors; type: cell-based; details: FIG. 16: 1400W (2 μm), AG, GW273629 (20 μm), 1-NIL (3 mM), Clotrimazole (20 μM)
# T1 construct: endogenous in cells; host or cells: primary mouse VSMCs transduced with siCtl or siAdamts1 lentivirus
# Procedure: FIG. 17. Representative images (n=4) of NO production (red) and GFP fluorescence (green) in unfixed VSMCs transduced with siCtl or siAdamts1 and treated with the Nos2 inhibitors as indicated. Bar, 50 μm.
# Mouse vascular smooth muscle cells (VSMCs) were isolated and grown as described (Esteban et al., 2011). All experiments were performed during passages 3-7. VSMCs were infected at a multiplicity of infection (MOI)=3 over 5 h. The medium was then replaced with fresh DMEM supplemented with 10% FBS, and cells were cultured for 3 more days, serum-starved for 48 h and then stimulated with Ang-II for 6 h for protein assays or 4 h for mRNA expression analysis.
# NOS2 [2] = target: NOS2 (Homo sapiens, UniProt P35228); details: as reported previously; cited from earlier work
# [3] = system: siAdamts1-transduced C57BL/6 mice; experiment: Aortopathy induced by siAdamts1 lentivirus (aortic Adamts1 knockdown) in C57BL/6 mice; type: in vivo, mouse; details: for Elastic fiber fragmentation (elastolysis, elastin breaks) / Fibrosis (collagen content): aortic sections, end of experiment; for Aortic dilation (AsAo and AbAo diameter) induced by siAdamts1: anti-TGFβ 10 mg/kg i.p. 3 times per week, L-NAME 0.5 mg/ml in drinking water; for Systolic and diastolic BP (hypotension) in siAdamts1-transduced mice: same treatments as E4
# Source text: (§1) Animal procedures were approved by the CNIC Ethics Committee and conformed to European Union guidelines for the care and experimental use of animals. Adamts1+/− mice were obtained from the European Mouse Mutant Archive [(EM:02291) B6; 129P2-Adamts1<tm1Dgen>/H] and carried a LacZ-Neo cassette to replace a genomic sequence (c7784) between exon1 and 2 in the Adamts1 target allele. Fbn1C1039G/+ mice (Judge et al., 2004), harboring a mutation in the Fbn1 gene, and Nos2−/− mice (Laubach et al., 1995) were obtained from Jackson Laboratories (JAX mice stock #012885 and 007072, respectively). These 3 strains had been previously backcrossed to C57BL/6 for more than nine generations. All mice were genotyped by PCR of tail samples using the following primers: Adamts1 mice (5′-[…]-3′(SEQ ID NO: 5), 5′-[…] (SEQ ID NO: 6)/[…]-3′ (SEQ ID NO: 7)); Nos2−/− mice (5′[…] 3′ (SEQ ID NO: 8); 5′ […] 3′(SEQ ID NO: 9), 5′ […] 3′) (SEQ ID NO: 10); Fbn1C1039G/+ mice (5′CTCATCATTTTTGGCCAGTTG 3′ (SEQ ID NO: 11), 5′GCACTTGATGCACATTCACA 3′ (SEQ ID NO: 12)). Wild-type littermates were used as controls unless otherwise specified. Mice were treated with Ang-II (Sigma-Aldrich) at 1 μg/kg/min or losartan (Sigma Aldrich) at 10 mg/kg/day using subcutaneous osmotic minipumps (Alzet Corp). The monoclonal pan-antibody against TGFβ1, 2, 3 clone 1D11 (BioXcell) was injected intraperitoneally 3 times per week at 10 mg/kg.
# (§2) Arterial blood pressure (BP) was measured in mouse tails using the automated BP-2000 Blood Pressure Analysis System (Visitech Systems, Apex, NC, USA). In brief, mice were trained for BP measurements every day for one week. After training, BP was measured one day before treatment or before lentiviral infection to determine the baseline BP values in each mouse cohort. Measurements were repeated several times during experiments. BP measurements were recorded in mice located in a tail-cuff restrainer, over a warmed surface (37° C.). Fifteen consecutive systolic and diastolic BP measurements were made, and the last ten readings per mouse were recorded and averaged.
# (§3) For in vivo ultrasound images, the aortic diameter was monitored in isofluorane-anesthetized mice (2% isofluorane) by high-frequency ultrasound with a VEVO 2100 echography device (VisualSonics, Toronto, Canada). Maximal internal diameters of aortic images were measured using VEVO 2100 software, version 1.5.0. All recordings were made by a cardiologist and a technician who were blinded to animal genotype and treatment. Measurements were taken before lentivirus administration or the corresponding treatments to determine the baseline diameters, and measurements were repeated several times during the experiment.
# For in vivo transduction experiments, animals were anesthetized (ketamine/xilacine) and a small incision was made to expose the right jugular vein (Esteban et al., 2011). Virus solution ([…] in PBS) was inoculated directly into the right jugular vein 3 weeks before Ang-II mini-pump implantation or one day before monitoring of aortic dilation. Transduction efficiency was analyzed in aortic samples by immunohistochemistry for GFP and Adamts1.
# (§4) Images of Masson's trichrome and EVG staining were analyzed for collagen content with ImageJ (http://rsbweb.nih.gov/ij/index.html) and with MetaMorph (Molecular Devices; Sunnyvale, California) for quantification of elastin breaks. For each animal, elastin breaks were counted in 3 sections and the mean number of breaks was calculated. Images were processed for presentation with Photoshop and Illustrator (Adobe). […]
# Aortic extracts were prepared from whole aortas as described for immunoblot assays, but in the absence of DTT. Extracts (15 μg) were fractionated under nonreducing conditions on SDS-polyacrylamide gels containing 1% gelatin. […]
# Adamts1+/− mice = experiment: Treatment of Adamts1+/− mice (aortic diameter, BP, histology); type: in vivo, mouse
# Source text: as §1, §2, §3
# Images of Masson's trichrome and EVG staining were analyzed for collagen content with ImageJ (http://rsbweb.nih.gov/ij/index.html) and with MetaMorph (Molecular Devices; Sunnyvale, California) for quantification of elastin breaks. For each animal, elastin breaks were counted in 3 sections and the mean number of breaks was calculated. Images were processed for presentation with Photoshop and Illustrator (Adobe).
# Fbn1C1039G/+ mice = experiment: Treatment of Fbn1C1039G/+ mice (Marfan syndrome model); type: in vivo, mouse
# Source text: as §1, §2
# (§5) For in vivo ultrasound images, the aortic diameter was monitored in isofluorane-anesthetized mice (2% isofluorane) by high-frequency ultrasound with a VEVO 2100 echography device (VisualSonics, Toronto, Canada). Maximal internal diameters of aortic images were measured using VEVO 2100 software, version 1.5.0. […]
# as §4, with “calculated.” for “calculated. Images were processed for presentation with Photoshop and Illustrator (Adobe).”
# mouse model of mild MFS = details: cited from earlier work
# model of severe MFS = details: compared with mild MFS model; cited from earlier work
# aortic root enlargement = details: randomized clinical trials, cited from earlier work
# wt mice = experiment: Ang-II treatment of wt mice for 28 days (ultrasonography of aorta); type: in vivo, mouse
# Source text: Animal procedures were approved by the CNIC Ethics Committee and conformed to European Union guidelines for the care and experimental use of animals. Adamts1+/− mice were obtained from the European Mouse Mutant Archive [(EM:02291) B6; 129P2-Adamts1<tm1Dgen>/H] and carried a LacZ-Neo cassette to replace a genomic sequence (c7784) between exon1 and 2 in the Adamts1 target allele. Fbn1C1039G/+ mice (Judge et al., 2004), harboring a mutation in the Fbn1 gene, and Nos2−/− mice (Laubach et al., 1995) were obtained from Jackson Laboratories (JAX mice stock #012885 and 007072, respectively). These 3 strains had been previously backcrossed to C57BL/6 for more than nine generations. […]
# as §5
# To investigate the contribution of Adamts1 to Ang-II-elicited aortic dilation and aneurysm, we used Adamts1 deficient mice from the European Mouse Mutant Archive (EM: 02291). […] No aneurysms or lethal dissections were detected in Adamts1+/− mice in the absence of Ang-II at this age.
# [4] = L-NAME 21 days, end of experiment
# NOS2, sequence (P35228 whole entry, the tested form may be a part): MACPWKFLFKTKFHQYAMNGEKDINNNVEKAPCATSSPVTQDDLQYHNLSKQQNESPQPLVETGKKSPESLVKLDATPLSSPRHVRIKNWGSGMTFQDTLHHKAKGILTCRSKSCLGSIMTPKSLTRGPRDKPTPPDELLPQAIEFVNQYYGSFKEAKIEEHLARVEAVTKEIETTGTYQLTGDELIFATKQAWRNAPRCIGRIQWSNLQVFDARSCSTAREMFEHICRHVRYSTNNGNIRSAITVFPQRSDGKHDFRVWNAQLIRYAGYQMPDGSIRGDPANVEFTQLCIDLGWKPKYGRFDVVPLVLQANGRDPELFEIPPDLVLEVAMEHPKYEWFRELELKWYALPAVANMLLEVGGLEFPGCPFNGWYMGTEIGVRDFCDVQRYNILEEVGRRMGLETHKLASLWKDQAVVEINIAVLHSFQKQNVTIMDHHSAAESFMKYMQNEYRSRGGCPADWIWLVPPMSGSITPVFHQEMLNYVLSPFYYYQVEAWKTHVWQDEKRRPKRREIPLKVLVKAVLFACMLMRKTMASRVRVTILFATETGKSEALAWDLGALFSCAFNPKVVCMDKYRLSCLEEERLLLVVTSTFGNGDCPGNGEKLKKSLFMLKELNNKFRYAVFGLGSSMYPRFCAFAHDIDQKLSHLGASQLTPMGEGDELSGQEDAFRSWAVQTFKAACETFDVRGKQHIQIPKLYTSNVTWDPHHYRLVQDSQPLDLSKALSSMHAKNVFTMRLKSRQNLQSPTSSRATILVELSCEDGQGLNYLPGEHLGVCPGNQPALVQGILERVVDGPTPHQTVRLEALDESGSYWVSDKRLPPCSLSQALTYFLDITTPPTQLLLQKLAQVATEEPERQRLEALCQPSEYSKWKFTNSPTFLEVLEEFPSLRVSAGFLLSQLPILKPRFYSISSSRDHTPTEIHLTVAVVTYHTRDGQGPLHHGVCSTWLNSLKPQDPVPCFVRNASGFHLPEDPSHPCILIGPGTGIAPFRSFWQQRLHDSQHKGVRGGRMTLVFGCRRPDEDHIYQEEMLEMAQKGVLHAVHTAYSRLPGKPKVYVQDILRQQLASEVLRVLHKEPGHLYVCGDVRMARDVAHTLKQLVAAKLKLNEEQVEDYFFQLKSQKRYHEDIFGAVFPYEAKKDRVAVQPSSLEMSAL
compound,measurement,setting,value
CC(=N)NCc1cccc(CN)c1 [1400W],"NO production (total NOx in conditioned media, NO staining)",Nos2 [1],reduced the expression of NO
Clc1ccccc1C(c1ccccc1)(c1ccccc1)n1ccnc1 [Clotrimazole],"NO production (total NOx in conditioned media, NO staining)",Nos2 [1],reduced the expression of NO
same,Dimerization of NOS2,NOS2 [2],inhibits the dimerization of NOS2
CC(=N)NCCS(=O)(=O)CC(N)C(=O)O (centres unmarked) [GW273629],"NO production (total NOx in conditioned media, NO staining)",Nos2 [1],reduced the expression of NO
"COC(=O)[C@@H](N)CCCNC(=N)N[N+](=O)[O-].Cl [L-NAME, Nω-Nitro-L-arginine methyl ester hydrochloride]",Mmp9 activation (zymography),[3]; aortic extracts from siAdamts1-transduced mice,prevented Mmp9 activation
same,"Elastic fiber fragmentation (elastolysis, elastin breaks)",[3],blocked elastolysis
same,Fibrosis (collagen content),[3],decreased the fibrosis
same,Aortic dilation (AsAo and AbAo diameter) induced by siAdamts1,[3]; losartan 10 mg/kg/day minipump,prevented siAdamts1-induced dilation of the AsAo and the AbAo
same,Systolic and diastolic BP (hypotension) in siAdamts1-transduced mice,[3],hypertensive effect
same,Time to complete reversal of aortic dilation,Adamts1+/− mice; Adamts1+/− and MFS mice,1 week
same,Elastic fiber fragmentation,Adamts1+/− mice; [4],decreased elastic fiber fragmentation
same,Fibrosis (collagen content),Adamts1+/− mice; [4],diminished fibrosis
same,AsAo and AbAo diameter,Adamts1+/− mice; L-NAME in drinking water for 21 days,rapidly decreased AsAo and AbAo diameter to normal levels
same,Systolic and diastolic BP,"Adamts1+/− mice; L-NAME in drinking water for 21 days, end of experiment",reverted the systolic and diastolic hypotension
same,AsAo and AbAo diameters,"Fbn1C1039G/+ mice; 12-week-old mice, L-NAME in drinking water for 21 days",rapidly decreased the AsAo and AbAo diameters to normal levels
same,Collagen content,"Fbn1C1039G/+ mice; L-NAME 21 days, AsAo and AbAo",unaffected
same,Elastic fiber fragmentation,Fbn1C1039G/+ mice; [4],diminished elastic fiber fragmentation
same,Systolic and diastolic BP,Fbn1C1039G/+ mice; [4],augmented the systolic and diastolic BP
same,"NO production (total NOx in conditioned media, NO staining)",Nos2 [1],reduced the expression of NO
CC(=N)NCCCC[C@H](N)C(=O)O [L-NIL],"NO production (total NOx in conditioned media, NO staining)",Nos2 [1],reduced the expression of NO
CCCCc1nc(Cl)c(CO)n1Cc1ccc(-c2ccccc2-c2nn[nH]n2)cc1 [losartan],"Elastic fiber fragmentation (elastolysis, elastin breaks)",[3],did not reduce elastic fiber fragmentation
same,Fibrosis (collagen content),[3],did not reduce elastic fiber fragmentation or fibrosis
same,Aortic dilation (AsAo and AbAo diameter) induced by siAdamts1,[3]; losartan 10 mg/kg/day minipump,neither treatment inhibited aortic dilation
same,Systolic and diastolic BP (hypotension) in siAdamts1-transduced mice,[3],did not prevent hypotension
same,BP in control mice,"[3]; siCtl control mice, losartan 10 mg/kg/day minipump",reduced BP in control mice
same,Aortic dilation,mouse model of mild MFS,these processes are also inhibited
same,Elastic lamellae fragmentation,mouse model of mild MFS,these processes are also inhibited
same,Effectiveness in severe MFS model,model of severe MFS,less effective
same,Reduction of the rate of aortic root enlargement,aortic root enlargement; versus atenolol,no more effective
same,Benefit of dual therapy with atenolol,aortic root enlargement,no additional benefit
Aminoguanidine,Aortic diameter (ascending and abdominal aorta),Adamts1+/− mice; AG 1.5 gr/1 in drinking water,reduces aortic diameter
same,"NO production (total NOx in conditioned media, NO staining)",Nos2 [1],reduced the expression of NO
"Angiotensin-II (DRVYIHPF; Angiotensin-2; UniProt P01019 25-32, looked up) [Ang-II]",AA or lethal aortic dissections,"Adamts1+/− mice; Adamts1+/− mice, Ang-II 28 days",readily triggered their formation
same,"Aortic dilation (AR, AsAo, AbAo)","wt mice; 8-week-old wt mice, Ang-II for 28 days, 1 μg/kg/min minipump",promoted generalized aortic dilation
same,AA or lethal aortic dissections,"wt mice; wt mice, Ang-II 28 days",barely induced AA or lethal aortic dissections
